# Data as given in patent EP1247448A2 (priority 1998, dated 1999).
# “And” between values parts separate entries of the source, which are not always exact repeats. Identical values can stand only once. Like-named read-outs stand apart in the source and are kept apart here.
# Assays:
# [1] = tested on: Tomato Late Blight; type: in vivo, Phytophthora infestans; conditions: Table 4a
# [2] = tested on: Cucumber Downy Mildew; experiment: Cucumber downy mildew control on cucumber plants (Example 4); type: in vivo, Pseudoperonospora cubensis; conditions: Table 4b
# [3] = tested on: Phytophthora infestans on potatoes (PLB); type: in vivo; conditions: Table 5b
# [4] = tested on: tomato late blight (TLB), Phytophthora infestans; type: in vivo; conditions: for TLB obs. % Control: Table 3a
# [5] = tested on: Phytophthora capsici; experiment: Phytophthora capsici colony growth inhibition on potato dextrose agar (Examples 1 and 2); type: cell-based, Phytophthora capsici (ATCC 15399)
# [6] = tested on: Cucumber Downy Mildew; design: species or system Pseudoperonospora cubensis; conditions: in vivo
# [7] = tested on: grape downy mildew, Plasmopara viticola; experiment: Grape downy mildew control on Delaware grapes (Example 6b); type: in vivo; conditions: Table 6b
# Description: Tissue culture produced from Delaware grapes were sprayed with the fungicides. Inoculation with grape downy mildew (GDM) spores having a concentration of 40,000 spores ml was conducted 1 day after the application. Plants were placed in a mist chamber for 24 hrs and then moved to a control temperature chamber for the remainder of the test period. Table 6b -
# [8] = tested on: Tomato Late Blight; type: in vivo, Phytophthora infestans; conditions: Table 6a
structure (smiles),measurement,setting,value
"CCCOC(=O)NCCCN(C)C [Cmpd. F, Propamocarb, reference compound]",% Control Observed,[1]; 0.063 Kg ai/ha,0%
same,% Control Observed,[1]; 0.125 Kg ai/ha,3%
same,% Control Observed,[1]; 0.25 Kg ai/ha,17%
same,% Control Observed,[2]; 0.063 Kg ai/ha,9%
same,% Control Observed,[2]; 0.125 Kg ai/ha,0%
same,% Control Observed,[2]; 0.25 Kg ai/ha,27%
"CCC(C)(NC(=O)c1cc(Cl)c(C)c(Cl)c1)C(=O)CCl (stereo not shown) [Compound A, N-[3'-(1'-chloro-3'-methyl-2'-oxopentan)]-3,5-dichloro-4-methylbenzamide]",% Control Observed,[3]; 0.05 Kg ai/ha,12%
same,% Control Observed,[3]; 0.10 Kg ai/ha,16%
same,control of tomato late blight,"[4]; Example 3a, alone at all rates tested",≥ 95%
same,TLB obs. % Control,[4]; 0.0125 kg ai/ha,97.1%
same,TLB obs. % Control,[4]; 0.025 kg ai/ha,96.7%
same,TLB obs. % Control,[4]; 0.05 kg ai/ha,96.7%
same,TLB obs. % Control,[4]; 0.1 kg ai/ha,97.1%
same,% Control Observed,[1]; 0.006 Kg ai/ha,23%
same,% Control Observed,[1]; 0.012 Kg ai/ha,20%
same,% Control Observed,[1]; 0.025 Kg ai/ha,36%
same,% Inhibition (Observed),"[5]; Table 1, Compound A 0.2 ppm, Compound C 0 ppm",34.1%
same,% Inhibition (Observed),"[5]; Table 1, Compound A 0.3 ppm, Compound C 0 ppm",52.8%
same,% Inhibition (Observed),"[5]; Table 2, Compound A 0.1 ppm, Compound D 0 ppm",21.6%
same,% Inhibition (Observed),"[5]; Table 2, Compound A 0.2 ppm, Compound D 0 ppm",31.0%
same,% Inhibition (Observed),"[5]; Table 2, Compound A 0.3 ppm, Compound D 0 ppm",44.0%
same,% Control Observed,[2]; 0.006 Kg ai/ha,56%
same,% Control Observed,[2]; 0.012 Kg ai/ha,33%
same,% Control Observed,[2]; 0.025 Kg ai/ha,45%
same,% Control Observed,[6],74.3% and 84.8% and 98.1%
same,% Control Observed,[7]; Cmpd. A 0.006 Kg ai/ha,22%
same,% Control Observed,[8]; 0.025 Kg ai/ha,84%
same,% Infection,[8]; 0.025 Kg ai/ha,13.2%
"OP(O)O [Compound C, Phosphorous Acid, reference compound]",% Inhibition (Observed),"[5]; Table 1, Compound C 70 ppm, Compound A 0 ppm",48.3%
same,% Inhibition (Observed),"[5]; Table 1, Compound C 100 ppm, Compound A 0 ppm",72.1%
"CCO[PH](=O)O [Cmpd. E, Fosetyl-aluminum, reference compound]",TLB obs. % Control,[4]; 0.112 kg ai/ha,30.9%
same,TLB obs. % Control,[4]; 0.225 kg ai/ha,14.3%
same,TLB obs. % Control,[4]; 0.45 kg ai/ha,57.1%
same,TLB obs. % Control,[4]; 0.9 kg ai/ha,54.8%
"O=C1c2ccccc2C(=O)N1SC(Cl)(Cl)Cl [Cmpd. G, Folpet, reference compound]",% Control Observed,[3]; 0.225 Kg ai/ha,0%
same,% Control Observed,[3]; 0.45 Kg ai/ha,3.5%
same,Number of Infection Sites,[6],16 and 22.2 and 19.2
"O=[N+]([O-])c1cc(C(F)(F)F)c(Cl)c([N+](=O)[O-])c1Nc1ncc(C(F)(F)F)cc1Cl [Cmpd. H, Fluazinam, reference compound]",% Control Observed,[7]; Cmpd. H 0.006 Kg ai/ha,52%
same,% Control Observed,[8]; 0.125 Kg ai/ha,20%
same,% Infection,[8]; 0.125 Kg ai/ha,64%
"O.O.O.O.O.O=S(=O)([O-])[O-].[Cu+2] [Compound D, CuSO4·5H2O, reference compound]",% Inhibition (Observed),"[5]; Table 2, Compound D 100 ppm, Compound A 0 ppm",15.6%
same,% Inhibition (Observed),"[5]; Table 2, Compound D 200 ppm, Compound A 0 ppm",47.0%
same,% Inhibition (Observed),"[5]; Table 2, Compound D 300 ppm, Compound A 0 ppm",59.2%
